Some test systems named below: SK-MEL-2 melanoma; T-47D breast; 786-0 renal; RXF 393 renal; HT29 colon; M14 melanoma; SF-539 CNS; OVCAR-4 ovarian; LOX IMVI melanoma; NCI/ADR-RES ovarian.
Common to all, as to test: growth of human tumour cells (NCI), 48 h

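Protocol summary: plate cells (96-well), add compound at 5 concentrations, incubate 48 h, interpolate endpoints linearly. At the TGI there is no net growth.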 Where a SMILES comes first, the peptide text is derived from it. The star is where a group is joined. OSu = O=C1CCC(=O)N1O*

For `NCCCCC(NC(=O)C(N)Cc1ccc(O)cc1)C(=O)NC(Cc1ccc(O)cc1)C(=O)NC(CCCCN)C(=O)ON1C(=O)CCC1=O` (configuration not stated) (H-YKYK-OSu; configuration not given here), the TGI with SK-MEL-2 melanoma, in the assay on T-47D breast, in the assay with 786-0 renal, in the assay with RXF 393 renal, with HT29 colon and in the assay on M14 melanoma was above 100 µM throughout.
With `CC[n+]1c(/C=C/c2ccc(N(CCCl)CCCl)cc2)ccc2cc(I)ccc21`, the TGI with SK-MEL-2 melanoma came out at 1.39 µM; in the assay on SF-539 CNS, 2.4 µM; in the assay on OVCAR-4 ovarian, 2.29 µM; in the assay with RXF 393 renal it was 3.77 µM; in the assay on HT29 colon, 8.19 µM; in the assay with LOX IMVI melanoma, 2.85 µM.
On to `NC(N)=N/N=C/c1c(-c2cc([N+](=O)[O-])c(Cl)cc2Cl)nc2n1CCS2`, for which the TGI in the assay on SK-MEL-2 melanoma was 9.45 µM; in the assay on SF-539 CNS, above 100 µM; in the assay on 786-0 renal, above 100 µM; in the assay with OVCAR-4 ovarian, 33.9 µM; in the assay with RXF 393 renal, above 100 µM; with HT29 colon, 27.5 µM. Besides, the TGI with M14 melanoma, in the assay with LOX IMVI melanoma and in the assay on NCI/ADR-RES ovarian was above 100 µM in each case.
Consider `C=CCCC(=O)C(=[N+]=[N-])C(=O)CCC(=O)c1ccccc1`, for which the TGI in the assay with SK-MEL-2 melanoma, in the assay with T-47D breast, in the assay on SF-539 CNS, in the assay on 786-0 renal, in the assay with RXF 393 renal and with HT29 colon was above 10 µM throughout. Also, the TGI in the assay with M14 melanoma and with LOX IMVI melanoma was above 10 µM each time.
In the case of `C=CCN(CCN(CC=C)S(=O)(=O)c1ccc(C)cc1)S(=O)(=O)c1ccc(C)cc1`, the TGI in the assay on T-47D breast, in the assay on OVCAR-4 ovarian, in the assay on RXF 393 renal, in the assay on HT29 colon, with M14 melanoma and with LOX IMVI melanoma was above 100 µM in each case. In addition, the TGI with NCI/ADR-RES ovarian is above 100 µM.
`O=C(O)c1ccc(Nc2nc3nn(Cc4ccccc4)cc3c(=O)s2)cc1`: the TGI in the assay with SK-MEL-2 melanoma, in the assay with SF-539 CNS, in the assay with 786-0 renal, with RXF 393 renal, in the assay on M14 melanoma and with LOX IMVI melanoma was above 100 µM throughout.
Consider `O/N=C\C(=Nc1ccc(Cc2ccc(N=C(/C=N\O)NO)cc2)cc1)NO`, for which the TGI in the assay on SK-MEL-2 melanoma, in the assay on SF-539 CNS, in the assay with 786-0 renal, in the assay with OVCAR-4 ovarian, in the assay on HT29 colon and in the assay with M14 melanoma was above 100 µM in each case. The molecule further displayed a TGI in the assay on LOX IMVI melanoma above 100 µM.
In the case of `COc1ccc(CCN2C(=O)CC34C=CC(CC3C2=O)O4)cc1OC` (configuration not stated), the TGI in the assay on SK-MEL-2 melanoma, with T-47D breast, with SF-539 CNS, in the assay with 786-0 renal, with OVCAR-4 ovarian and in the assay with HT29 colon was above 100 µM each time. Also, the TGI in the assay with M14 melanoma, in the assay on LOX IMVI melanoma and in the assay with NCI/ADR-RES ovarian was above 100 µM each time.
Consider `O=c1c2c3c(sc2nc2n1N=CN(c1ccc(F)cc1)C2)CCCC3`, for which the TGI in the assay on SK-MEL-2 melanoma, with T-47D breast, in the assay with 786-0 renal, in the assay on OVCAR-4 ovarian, in the assay with RXF 393 renal and in the assay with HT29 colon was above 100 µM each time. Besides, the TGI in the assay on M14 melanoma, in the assay on LOX IMVI melanoma and with NCI/ADR-RES ovarian was above 100 µM throughout.
For `CC(=O)O[C@H]1C(=O)[C@@]2(C)[C@H]([C@H](OC(=O)c3ccccc3)[C@]3(O)C[C@H](OC(=O)[C@H](O)[C@@H](NC(=O)c4ccc(N(C)C)cc4)c4ccccc4)C(C)=C1C3(C)C)[C@]1(OC(C)=O)CO[C@@H]1C[C@@H]2O`, the TGI in the assay with T-47D breast is above 50 µM; with 786-0 renal, above 50 µM; in the assay on OVCAR-4 ovarian, above 50 µM; in the assay with RXF 393 renal, 0.226 µM; in the assay with M14 melanoma it was above 50 µM; in the assay with LOX IMVI melanoma, above 50 µM. In the assay with NCI/ADR-RES ovarian, this molecule showed a TGI of 16.7 µM.
Regarding `C=C(C)C(=O)OC1C[C@H](COC(C)=O)C2CC=C(CO)C2C2OC(=O)C(=C)[C@H]12` (some centres not stated), the TGI in the assay with SK-MEL-2 melanoma is above 100 µM; in the assay with T-47D breast it was above 100 µM; in the assay on SF-539 CNS it was above 100 µM; in the assay on 786-0 renal, 97.1 µM; with HT29 colon it was above 100 µM; in the assay with M14 melanoma, 31 µM. Moreover, the TGI in the assay with LOX IMVI melanoma and with NCI/ADR-RES ovarian was above 100 µM each time.
Take `CC1(C)OC2OC(COC(=O)c3ccc(C#N)cc3)C3OC(C)(C)OC3C2O1` (configuration not stated): the TGI with SK-MEL-2 melanoma, in the assay with SF-539 CNS, with 786-0 renal, with OVCAR-4 ovarian, in the assay on RXF 393 renal and in the assay on HT29 colon was above 75 µM each time. Further, the TGI with M14 melanoma, in the assay with LOX IMVI melanoma and with NCI/ADR-RES ovarian was above 75 µM each time.
As to `C=CCn1c(=N)/c(=C(\N)O)s/c1=C1/SC(=S)N(c2ccc(C)cc2)C1=O`, the TGI in the assay with SK-MEL-2 melanoma, with SF-539 CNS and with HT29 colon was above 100 µM in each case.
With `CC(=O)NC1(C)C(C)C2CC1C(C)C2(C)C` (configuration not stated), the TGI in the assay with T-47D breast, in the assay with SF-539 CNS, in the assay on 786-0 renal, in the assay on OVCAR-4 ovarian, in the assay on RXF 393 renal and in the assay on HT29 colon was above 100 µM throughout. This molecule registered a TGI in the assay on M14 melanoma above 100 µM.
As for `COc1ccc2c3c1OC1C(OC)(OC)CC4(C=C2)CN(C)CCC314` (configuration not stated), the TGI in the assay with T-47D breast, in the assay on SF-539 CNS, in the assay with 786-0 renal, with OVCAR-4 ovarian, in the assay with RXF 393 renal and with HT29 colon was above 100 µM throughout. The TGI with LOX IMVI melanoma and in the assay with NCI/ADR-RES ovarian was above 100 µM throughout.
Regarding `O=C(c1ccco1)N(C(=S)N1CCN(c2ccccn2)CC1)c1ccccc1`, the TGI in the assay with SK-MEL-2 melanoma, in the assay on SF-539 CNS, with 786-0 renal, in the assay on OVCAR-4 ovarian, in the assay with RXF 393 renal and in the assay with HT29 colon was above 100 µM in each case. The TGI in the assay with M14 melanoma and with LOX IMVI melanoma was above 100 µM each time.

Values taken from PubChem BioAssay (NCI).
